The text below walks through data of ChEMBL document CHEMBL1138946, “Toward stable N4-modified neurotensins for NTS1-receptor-targeted tumor imaging with 99mTc” (J Med Chem, 2006).

Structures are written as SMILES. Starred links: 1 amine or outer side, 2 acyl side, 3 side chain; linkers in the order of their positions; H or OH if unused. Non-standard residues stand in square brackets, D forms with d. Residues, ends and D or L forms follow the SMILES beside them. Groups on a side chain read outwards from the residue. *: point of attachment. X1 = NC(N)=NCCCC(CN([C@@H](CCCN=C(N)N)C(=O)[*:2])[*:1])N[*:3]; X3 = NCCCCC(CN([C@@H](CCCN=C(N)N)C(=O)[*:2])[*:1])N[*:3]; Tle = CC(C)(C)[C@H](N)C(=O)O; X2 = NCCNCC(CNCCN)C(=O)*

What is called IC50 is the concentration at which inhibition is half-maximal. A high value points to a need for much substance.

Assay [1] addresses T1, Neurotensin receptor type 1 (Homo sapiens, UniProt P30989). In words: Displacement of [125I]Tyr3-NT from human NTS1R expressed in WiDr cells. In kind it is cell-based.
Assay [2] concerns the target T1, Neurotensin receptor type 1. In words: Displacement of [125I]Tyr3-NT from human NTS1R expressed in HT29 cells. The format is cell-based, HT-29. A general note: Displacement assays read how much labelled ligand stays bound in the presence of the test substance.
For assay [3] the target is unchanged. In words: Displacement of [125I]Tyr3-NT from NTS1R in human exocrine ductal pancreatic carcinoma.

T1 sequence (P30989 whole entry): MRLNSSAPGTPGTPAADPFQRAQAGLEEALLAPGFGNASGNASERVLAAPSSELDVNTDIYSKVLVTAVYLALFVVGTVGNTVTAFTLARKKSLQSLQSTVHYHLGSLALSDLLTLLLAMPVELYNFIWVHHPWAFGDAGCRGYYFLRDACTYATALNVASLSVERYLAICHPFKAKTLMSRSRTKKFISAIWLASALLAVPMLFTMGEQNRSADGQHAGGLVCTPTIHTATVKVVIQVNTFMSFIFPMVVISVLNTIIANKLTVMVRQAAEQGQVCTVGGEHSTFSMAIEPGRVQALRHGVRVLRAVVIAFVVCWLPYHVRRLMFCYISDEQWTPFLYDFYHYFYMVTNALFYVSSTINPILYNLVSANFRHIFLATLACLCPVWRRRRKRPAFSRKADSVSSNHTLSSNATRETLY

For the compound `CC(C)C[C@H](NC(=O)[C@@H](NC(=O)[C@H](Cc1ccc(O)cc1)NC(=O)[C@@H]1CCCN1C(=O)[C@H](CCCN=C(N)N)NCC(CCCCN)NC(=O)CNC(=O)C(CNCCN)CNCCN)C(C)(C)C)C(=O)O` (stereo partly drawn) [DEMOTENSIN 3] (H-[X3]([Gly-X2])PY[Tle]L-OH), the concentration for half-maximal inhibition (IC50) was found to be 0.66 nM in assay [1] and 1.5 nM in assay [2].
As for `CC[C@H](C)[C@H](NC(=O)[C@H](Cc1ccc(O)cc1)NC(=O)[C@@H]1CCCN1C(=O)[C@H](CCCN=C(N)N)NC(=O)[C@H](CCCN=C(N)N)NC(=O)CNC(=O)C(CNCCN)CNCCN)C(=O)N[C@@H](CC(C)C)C(=O)O` [Demotensin 1] (X2-GRRPYIL-OH), the half-maximal inhibitory concentration (IC50) in assay [2] came out at 0.32 nM.
Take `CC(C)C[C@H](NC(=O)[C@@H](NC(=O)[C@H](Cc1ccc(O)cc1)NC(=O)[C@@H]1CCCN1C(=O)[C@H](CCCN=C(N)N)NCC(CCCN=C(N)N)NC(=O)CNC(=O)C(CNCCN)CNCCN)C(C)(C)C)C(=O)O` (stereo partly drawn) [DEMOTENSIN 4] (H-[X1]([Gly-X2])PY[Tle]L-OH): the 50% inhibitory concentration (IC50) in assay [1] is 0.51 nM; in assay [3], 2.9 nM; in assay [2], 0.85 nM.
`CC[C@H](C)[C@H](NC(=O)[C@H](Cc1ccc(O)cc1)NC(=O)[C@@H]1CCCN1C(=O)[C@H](CCCN=C(N)N)NCC(CCCCN)NC(=O)CNC(=O)C(CNCCN)CNCCN)C(=O)N[C@@H](CC(C)C)C(=O)O` (stereo partly drawn) [DEMOTENSIN 2] (H-[X3]([Gly-X2])PYIL-OH): the IC50 in assay [1] was found to be 0.18 nM; in assay [2], 0.41 nM.
